{"source": "patent US20160257997A1", "about": "“METHODS FOR WHOLE-CELL ANALYSIS OF GRAM-POSITIVE BACTERIA” (AdvanDx, Inc., priority 2009, published 2016)", "tested_on": "MecA mRNA", "experiment": "PNA FISH of MecA mRNA in permeabilized S. aureus (Examples 1-3)", "format": "cell-based", "data": [{"sequence": "GCTATCGTGTCACAA (all peptide nucleic acid (PNA); fluorescein label, position not given here; listed as Staphylococcus aureus) [Probe 2, Flu-labeled PNA probe, methicillin-resistance]", "values": [{"measurement": "fluorescent staining of bacteria (FITC filter)", "setting": "MRSA 43300, oxacillin-induced, FIG. 1 Slides B-D, Probes 1-5 794 nM combined, Probe 2 750 nM, Probe 6 750 nM", "value": "Green fluorescent bacteria were observed"}, {"measurement": "fluorescent staining of bacteria (FITC filter), competition control", "setting": "MRSA 43300, Probe 2 300 nM in the presence of 16.6-fold excess (5000 nM) of biotin labeled Probe 7, FIG. 1 Slide E", "value": "No signal was observed"}]}]}
